Experimental data published in patent publication US20090036530A1, “Crystalline acid of lipoxin A4 analogs and method of making” (Bayer Schering Pharma Aktiengesellschaft, priority 2006, published 2009).

Test: Hygroscopicity study in automated water sorption analyzer (sorption/desorption isotherm)
Type: physicochemical
Procedure: Polymorph I of the free acid is transformed above 60% relative humidity into the hydrate. It is hygroscopic and adsorbs at 80% relative humidity approx. 8% moisture, which corresponds to a dihydrate of the substance. The hydration is reversible. Below 40% relative humidity a transformation into polymorph I is observed.
Data collection for the hygroscopicity studies was carried out in an automated water sorption analyzer. Approximately 10 mg of the investigated solid state form of the crystalline acid was exposed to a continuous flow of nitrogen with predetermined and constant relative humidity. The rate of sweep gas was set at 200 cm^3/min. For a basic assay, two full cycles (sorption/desorption) were measured at 25° C. The measurement was started at 0% relative humidity in order to remove surface water. Once the constant mass was achieved, the next humidity was automatically set. The water sorption/desorption was investigated in steps of 10% between 0% and 90% relative humidity under the criteria for initiation of the first step as set forth herein. Additionally, the sorption at about 98% relative humidity was investigated. Data was acquired using the DVSWin software.

relative humidity above which polymorph I is transformed into the hydrate (25° C., water sorption) | moisture adsorbed (at 80% relative humidity, corresponds to a dihydrate) | hygroscopicity (in words) (sorption isotherm, FIG. 1) | reversibility of the hydration (sorption/desorption cycles) | relative humidity below which transformation into polymorph I is observed (desorption) | SMILES
above 60 % relative humidity | approx. 8% | hygroscopic | reversible | – | O=C(O)COC[C@H](O)[C@H](O)/C=C/C=C/C#C/C=C/[C@H](O)COc1ccc(F)cc1 [polymorph I, 2-((2S,3R,4E,6E,10E,12S)-13-(4-fluorophenoxy)-2,3,12-trihydroxytrideca-4,6,10-trien-8-ynyloxy)acetic acid]
– | – | – | – | Below 40 % relative humidity | O=C(O)COC[C@H](O)[C@H](O)/C=C/C=C/C#C/C=C/[C@H](O)COc1ccc(F)cc1 [hydrate, 2-((2S,3R,4E,6E,10E,12S)-13-(4-fluorophenoxy)-2,3,12-trihydroxytrideca-4,6,10-trien-8-ynyloxy)acetic acid]
